Test results taken from patent US20100055113A1, “CELLULAR RECEPTOR FOR ANTIPROLIFERATIVE FACTOR” (The University of Maryland, Baltimore, priority 2006, published 2010).
Ends that are not written are not given here. glycan = not defined here

T1: CKAP4/p63 (Homo sapiens, UniProt Q07065)
T1 construct: endogenous in cells; host or cells: explanted primary normal human bladder epithelial cells
T1 sequence (Q07065 1-602): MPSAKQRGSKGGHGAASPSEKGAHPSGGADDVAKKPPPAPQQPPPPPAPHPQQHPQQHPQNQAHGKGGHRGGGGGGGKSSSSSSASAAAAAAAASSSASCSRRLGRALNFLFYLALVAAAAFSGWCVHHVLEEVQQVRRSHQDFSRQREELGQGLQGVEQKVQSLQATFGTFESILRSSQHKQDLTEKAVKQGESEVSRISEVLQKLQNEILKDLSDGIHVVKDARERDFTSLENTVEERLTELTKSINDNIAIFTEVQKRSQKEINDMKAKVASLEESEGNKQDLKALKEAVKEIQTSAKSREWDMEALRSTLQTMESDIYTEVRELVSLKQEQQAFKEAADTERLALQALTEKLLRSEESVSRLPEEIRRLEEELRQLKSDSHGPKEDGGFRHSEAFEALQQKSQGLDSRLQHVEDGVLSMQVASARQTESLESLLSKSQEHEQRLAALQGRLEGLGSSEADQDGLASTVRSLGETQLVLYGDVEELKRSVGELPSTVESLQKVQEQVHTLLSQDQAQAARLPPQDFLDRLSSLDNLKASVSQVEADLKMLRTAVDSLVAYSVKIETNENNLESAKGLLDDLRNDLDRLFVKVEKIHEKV

T2: cytoskeleton-associated protein 4/p63 (CKAP4/p63) (human, UniProt Q07065 1-602)
T2 sequence: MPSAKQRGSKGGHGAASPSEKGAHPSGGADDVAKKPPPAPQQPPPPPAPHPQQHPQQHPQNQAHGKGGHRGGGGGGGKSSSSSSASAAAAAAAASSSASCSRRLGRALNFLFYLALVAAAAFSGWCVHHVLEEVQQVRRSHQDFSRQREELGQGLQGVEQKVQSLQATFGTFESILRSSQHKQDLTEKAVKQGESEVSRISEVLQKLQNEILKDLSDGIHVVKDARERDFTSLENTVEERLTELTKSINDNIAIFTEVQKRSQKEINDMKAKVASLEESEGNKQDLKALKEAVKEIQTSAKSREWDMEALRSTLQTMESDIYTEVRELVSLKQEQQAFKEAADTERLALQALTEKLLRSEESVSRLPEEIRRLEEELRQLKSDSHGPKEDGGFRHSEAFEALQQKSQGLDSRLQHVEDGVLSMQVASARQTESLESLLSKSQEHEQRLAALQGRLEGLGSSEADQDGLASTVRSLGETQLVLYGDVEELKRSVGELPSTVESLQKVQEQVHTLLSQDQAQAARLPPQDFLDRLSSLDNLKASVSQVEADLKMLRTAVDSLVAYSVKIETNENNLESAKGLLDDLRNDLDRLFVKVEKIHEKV


How the values were obtained:
[1] = system: normal human bladder epithelial cells; assay: 3H-thymidine incorporation cell proliferation assay; assay type: cell-based
Description: (§1) Cell proliferation was measured by ^3H-thymidine incorporation into explanted normal human bladder epithelial cells, as previously described (Keay et al., 2004; Keay et al., 1996). Briefly, purified lyophilized synthetic APF was resuspended in acetonitrile/distilled water (1:1), diluted in serum-free MEM (containing only glutamine and antibiotics/antimycotics), and applied to the cells; cell controls received acetonitrile/distilled water diluted in serum-free MEM alone. Cells were then incubated at 37° C. in a 5% CO2 atmosphere for 48 hours. The cell contents harvested and methanol-fixed onto glass fiber filter paper, and the amount of radioactivity incorporated determined. Significant inhibition of 3H-thymidine incorporation was defined as a mean decrease in counts per minute of greater than 2 standard deviations from the mean of control cells for each plate.

CKAP4/p63 [2] = target: T1, CKAP4/p63; assay: Sensitivity of siRNA-electroporated normal bladder epithelial cells to APF (thymidine incorporation); assay type: cell-based; details: electroporation with siRNA, FIG. 5B
Description: as §1, with “plate. Double stranded siRNA corresponding to nucleotides 594-616 ([NT] sense strand; SEQ ID NO:5) of CKAP4/p63 (NM-006825) and a scrambled double stranded negative control siRNA ([NT] sense strand; SEQ ID NO:13) were prepared by preincubating single-stranded sense and anti-sense strands prepared with double A overhangs in serum-free MEM medium at 37° C. for 1 hour. […]” for “plate.”

CKAP4/p63 [3] = assay: Western blot of CKAP4/p63 protein expression after siRNA electroporation; assay type: cell-based, human; details: normal bladder epithelial cells, electroporation with siRNA; FIG. 5A
Description: Solubilized high affinity APF-binding bladder epithelial cell proteins were prepared as described above. Solubilized bladder epithelial cell membrane proteins were prepared by rinsing cells in the culture flasks with ice cold PBS, then scraping the cells into ice-cold extraction buffer (20 mM Tris/HCL, pH 7.4, containing 50 μg/ml PMSF, 2 μg/ml aprotinin, 100 μM tosyl-lysine-chloromethyl-ketone, 1 μM pepstatin A, and 1 μg/ml diisopropylfluorophosphate). The cell slurry was then vortexed until homogeneous, and centrifuged at 4° C. for 10 minutes at 14,000 rpm. Supernatant was removed, and the pelleted membrane fraction was washed once with ice cold extraction buffer, repelleted, and proteins were solubilized using ice cold extraction buffer containing 1% Triton X-100. Solubilized total cell proteins were extracted into ice cold RIPA buffer containing 1.0% NP40, as previously described (Keay et al., 2003). Protein concentration of solubilized protein samples was measured using a Folin reagent-based protein assay kit (Bio-Rad). […]

[4] = system: normal human bladder epithelial cells; details: bladder epithelial cell proliferation; background statement; cited from earlier work
[5] = target: T2, cytoskeleton-associated protein 4/p63 …; assay: cell-based or functional assay

Molecule | decrease in sensitivity of the cells to APF (CKAP4/p63 [2]) | CKAP4/p63 protein expression relative to beta actin (CKAP4/p63 [3]) | also measured
biotinylated synthetic APF: APF biotinylated on the C-terminal lysine residue, carrying Galβ1-3GalNAcα-O-threonine (TVPAAVVVAK) |  |  | antiproliferative activity as compared to the parent synthetic GalNAcβ1-3Gal-APF congener ([1]; primary normal bladder epithelial cells): approximately 80%
rhodamine-labeled APF: synthetic APF glycopeptide with C-terminal lysine labelled with 5(6)-Rhodamine B isothiocyanate (TVPAAVVVAK) |  |  | antiproliferative activity relative to synthetic, unlabeled APF ([1]; normal bladder epithelial cells): approximately 85%
sialoglycopeptide inhibitor of bladder epithelial cell proliferation; nonapeptide TVPAAVVVA (SEQ ID NO:1) glycosylated on N-terminal threonine [APF, Sialic acid-galactose-N-acetylgalactosamine-threonine-valine-proline-alanine-alanine-valine-valine-valine-alanine] |  |  | potency of APF (EC50) [4]: picomolar range
T(glycan)VPAAVVVA (reading uncertain; also: exact glycoform not given here) [synthetic APF (antiproliferative factor)] |  |  | sensitivity of the cells to APF after siRNA knockdown of CKAP4/p63 (3H-thymidine incorporation) [5]: ~1000 fold

Further lines, with some results ahead:

decrease in sensitivity of the cells to APF (CKAP4/p63 [2]) | Molecule | CKAP4/p63 protein expression relative to beta actin (CKAP4/p63 [3]) | also measured
approximately one thousand-fold | 5′-AACUUUUGAGUCCAUCUUGAGAA-3′ sense strand [double-stranded siRNA for CKAP4/p63] | decreased protein expression of CKAP4/p63 relative to beta actin | 
no decrease in sensitivity to APF | 5′-AAUUCUGUAUGCUA CCUGUAGAA-3′ sense strand [scrambled siRNA, reference compound] | little or no change | 
